Experimental data from US8680155B2, “Synthesis and antitumor activity of novel bis(benzylidene-benzenamine)disulfides” (Kaohsiung Medical University, priority 2011, dated 2014).

Tests used:
[1] = tested on: 293T; assay: MTT survival, 293T kidney cancer; type: cell-based, human
Experimental: (§1) Next, in vitro cytotoxicity of the multiple compounds in various cell lines was evaluated, which also was performed using MTT colorimetric assay. […] Comparing breast cancer cells MCF-7 with other cancer cells, most selected compounds had higher inhibition activity to MCF-7 cells. Therefore, breast cancer cells MCF-7 were chosen to be the research target in the following experiments.

[2] = tested on: A549; assay: MTT survival, A549 lung cancer; type: cell-based, human; settings: A549, 10 μM
Experimental: as §1

[3] = tested on: H1335; assay: MTT survival, H1335 lung cancer; type: cell-based, human; settings: H1335, 10 μM
Experimental: as §1

[4] = tested on: A375; assay: MTT survival, A375 melanoma; type: cell-based, human; settings: A375, 10 μM
Experimental: as §1

[5] = tested on: Ca-922; assay: MTT survival, Ca-922 oral cancer; type: cell-based, human; settings: Ca-922, 10 μM
Experimental: as §1

[6] = tested on: Cal-27; assay: MTT survival, Cal-27 oral cancer; type: cell-based, human; settings: Cal-27, 10 μM
Experimental: as §1

[7] = tested on: breast cancer cells MCF-7; assay: Cell cycle analysis by flow cytometry (PI staining); type: cell-based, human; settings: MCF-7, 5 μM, 24 hours; control 11.54%
Experimental: This experiment was performed by treating breast cancer cells MCF-7 with compounds, and then cell cycle was analyzed using flow cytometry known by the skilled person in the art. Firstly, breast cancer cells MCF-7 were treated with the prepared compounds (5 μM) for 24 hours and stained with propidium iodide (PI). Approximately 10000 cells from each sample were analyzed with FACScan flow cytometer and software. […] The sub-G1 DNA Peaks for compounds 4, 5, 7, 18, 21, 23 and 24 were 20.64%, 17.92%, 26.22%, 11.95%, 19.85%, 4.35% and 33.89% respectively (data not shown), while the sub-G1 DNA peak for control (without any drug treatment) was 11.54%.

[8] = tested on: MCF-7; assay: MTT survival, MCF-7 breast cancer; type: cell-based, human; settings: MCF-7, 10 μM
Experimental: as §1

[9] = tested on: A2058; assay: MTT survival, A2058 melanoma; type: cell-based, human; settings: A2058, 10 μM
Experimental: as §1

[10] = tested on: HOP-92; assay: MTT cytotoxicity, HOP-92 non-small cell lung cancer; type: cell-based; settings: HOP-92, MTT
Experimental: (§2) For confirming the cytotoxicity of bis(benzylidene-benzenamine)disulfides of the invention on various cancer cells, the well known MTT (3-(4,5-dimethylthiazol-2-yl)-2,5-diphenyltetrazolium bromide) colorimetric assay in this art was performed, and the method was not detailedly described herein. Please refer to Table 3, compound 12 was selected from compounds 1 to 24 to proceed cytotoxicity experiment.

[11] = tested on: SK-MEL-5; assay: MTT cytotoxicity, SK-MEL-5 melanoma; type: cell-based; settings: SK-MEL-5, MTT
Experimental: as §2

[12] = tested on: selected cancer cell lines; assay: MTT cytotoxicity, mean over cancer cell lines; type: cell-based; settings: read-out: mean 50% growth inhibition (GI50)
Experimental: as §2

[13] = tested on: IGROV1; assay: MTT cytotoxicity, IGROV1 ovarian cancer; type: cell-based
Experimental: as §2

[14] = tested on: SNB-75; assay: MTT cytotoxicity, SNB-75 central nervous system cancer; type: cell-based; settings: SNB-75, MTT
Experimental: as §2

[15] = tested on: MALME-3M; assay: MTT cytotoxicity, MALME-3M melanoma; type: cell-based
Experimental: as §2

[16] = tested on: HCT-15; assay: MTT cytotoxicity, HCT-15 colon cancer; type: cell-based; settings: HCT-15, MTT
Experimental: as §2

[17] = tested on: NCI-H226; assay: MTT cytotoxicity, NCI-H226 non-small cell lung cancer; type: cell-based
Experimental: as §2

[18] = tested on: LOX MVI; assay: MTT cytotoxicity, LOX MVI melanoma; type: cell-based
Experimental: as §2

[19] = tested on: T-47D; assay: MTT cytotoxicity, T-47D breast cancer; type: cell-based
Experimental: as §2

[20] = tested on: mouse melanoma cells B16; assay: MTT growth inhibition on murine melanoma cells (FIG. 1); type: cell-based; settings: 10 μM, 48 hours
Experimental: In addition, for recognizing whether the prepared disulfides had cytotoxicity to normal cells and murine cells, human dermal fibroblasts and mouse melanoma cells B16 were selected as the models using MTT colorimetric assay. First, fibroblasts or B16 cells were seeded in 96-well culture plate at 2500 cells per well and cultivated overnight until cell attachment. Each compound (10 μM) was added into the culture media in triplicate and incubated for 48 hours, and finally MTT reagent was added into each well to detect absorbance.
Please refer to FIG. 1, which illustrates the growth inhibition of various compounds to human dermal fibroblast and B16 cells.

[21] = tested on: phosphorylated p38 protein; assay: Phosphorylated p38 expression by immunoblotting in MCF-7 cells; type: cell-based, human; settings: MCF-7, 24-hour treatment, different concentrations
Experimental: P38 protein in p38 mitogen-activated protein kinase (MAPK) pathway was chosen to be the index of apoptosis in this experiment, and phosphorylated p38 expression was evaluated using immunoblotting assay known by the skilled person in the art. Cellular protein was harvested after the 24-hour treatment of compound 24 on MCF-7 cells, and then resolved with sodium dodecyl sulfate (SDS)-polyacrylamide gel electrophoresis and developed using immunoblotting. […] In combination with aforementioned experimental results, compound 24 and other compounds could induce cancer cell apoptosis.

[22] = tested on: melanoma cells B16 tumor; assay: Antitumor activity in B16 tumor-bearing mice; type: in vivo; settings: injection into sole of feet, B16 in C57BL/6 mice
Experimental: Firstly, a total of 5×10^6 melanoma cells B16 were inoculated into female C57BL/6 mice (about 19˜21 grams/7 to 9 weeks). […] When tumor reached about 4 mm×4 mm in diameter, mice were separated into groups. Each group had four mice in each experiment. Tumor volume were majored by calipers each two days after compound injection into each sole of feet of mice or without compound injection (control), and tumor volume was calculated by following formula: Tumor volume=[…] (Equation I)

Row | SMILES | Survival (% control) of compound (10 μM) [1] | Survival (% control) of compound (10 μM) [2] | Survival (% control) of compound (10 μM) [3] | Survival (% control) of compound (10 μM) [4] | Survival (% control) of compound (10 μM) [5] | Survival (% control) of compound (10 μM) [6] | sub-G1 DNA peak [7] | Survival (% control) of compound (10 μM) [8] | Survival (% control) of compound (10 μM) [9] | other results
1 | Cc1cc(C(=Nc2ccccc2)SSC(=Nc2ccccc2)c2ccc([N+](=O)[O-])c(C)c2)ccc1[N+](=O)[O-] [Compound 1] | 76.5 ± 0.19 % control | 71.5 ± 0.09 % control | 69.8 ± 0.13 % control | 90.3 ± 0.05 % control | 80.8 ± 0.08 % control | 100.9 ± 0.09 % control |  |  |  | 
2 | O=[N+]([O-])c1ccc(C(=Nc2ccc(C(F)(F)F)cc2)SSC(=Nc2ccc(C(F)(F)F)cc2)c2ccc([N+](=O)[O-])cc2)cc1 [Compound 4] | 64.6 ± 0.28 % control | 65.4 ± 0.11 % control | 66.0 ± 0.14 % control | 84.6 ± 0.08 % control | 80.1 ± 0.08 % control | 102.5 ± 0.06 % control | 20.64% | 59.6 ± 0.28 % control | 92.6 ± 0.05 % control | 
3 | O=[N+]([O-])c1ccc(C(=Nc2ccc(Cl)cc2)SSC(=Nc2ccc(Cl)cc2)c2ccc([N+](=O)[O-])cc2)cc1 [Compound 5] | 70.9 ± 0.24 % control | 82.4 ± 0.06 % control | 75.8 ± 0.10 % control | 79.4 ± 0.11 % control | 79.4 ± 0.08 % control | 100.1 ± 0.07 % control | 17.92% | 54.3 ± 0.32 % control | 97.5 ± 0.02 % control | 
4 | Cc1cc(C(=Nc2ccc(Cl)cc2)SSC(=Nc2ccc(Cl)cc2)c2ccc([N+](=O)[O-])c(C)c2)ccc1[N+](=O)[O-] [Compound 7] | 71.2 ± 0.23 % control | 78.7 ± 0.07 % control | 67.4 ± 0.13 % control | 92.4 ± 0.04 % control | 96.2 ± 0.02 % control | 101.7 ± 0.09 % control | 26.22% | 51.7 ± 0.34 % control | 99.6 ± 0.02 % control | 
5 | Cc1cc([N+](=O)[O-])ccc1N=C(SSC(=Nc1ccc([N+](=O)[O-])cc1C)c1ccc(C(F)(F)F)cc1)c1ccc(C(F)(F)F)cc1 [Compound 12] |  |  |  |  |  |  |  |  |  | GI50 [10]: 175 nM; GI50 [11]: 262 nM; GI50 [12]: 372 nM; GI50 [13]: 217 nM; GI50 [14]: 141 nM; GI50 [15]: 252 nM; GI50 [16]: 388 nM; GI50 [17]: 427 nM; GI50 [18]: 304 nM; GI50 [19]: 221 nM
6 | Cc1ccc(N=C(SSC(=Nc2ccc(C)c([N+](=O)[O-])c2)c2ccc(C(F)(F)F)cc2)c2ccc(C(F)(F)F)cc2)cc1[N+](=O)[O-] [Compound 17] | 75.3 ± 0.21 % control | 76.9 ± 0.07 % control | 81.4 ± 0.08 % control | 103.2 ± 0.02 % control | 82.1 ± 0.07 % control | 107.1 ± 0.08 % control |  |  |  | 
7 | Cc1c(N=C(SSC(=Nc2cccc([N+](=O)[O-])c2C)c2ccc(F)cc2)c2ccc(F)cc2)cccc1[N+](=O)[O-] [Compound 18] | 71.1 ± 0.23 % control | 75.5 ± 0.08 % control | 70.0 ± 0.13 % control | 91.5 ± 0.04 % control | 79.4 ± 0.09 % control | 94.9 ± 0.07 % control | 11.95% | 33.1 ± 0.47 % control | 95.9 ± 0.02 % control | 
8 | Cc1ccc([N+](=O)[O-])cc1N=C(SSC(=Nc1cc([N+](=O)[O-])ccc1C)c1ccc(F)cc1)c1ccc(F)cc1 [Compound 21] | 32.8 ± 0.52 % control | 62.1 ± 0.12 % control | 80.6 ± 0.08 % control | 81.1 ± 0.10 % control | 66.7 ± 0.13 % control | 76.6 ± 0.20 % control | 19.85% | 13.8 ± 0.60 % control | 76.3 ± 0.15 % control | 
9 | O=[N+]([O-])c1cc(N=C(SSC(=Nc2ccc(F)c([N+](=O)[O-])c2)c2ccc(C(F)(F)F)cc2)c2ccc(C(F)(F)F)cc2)ccc1F [Compound 23] | 57.8 ± 0.33 % control | 64.4 ± 0.12 % control | 80.2 ± 0.08 % control | 94.3 ± 0.03 % control | 65.8 ± 0.14 % control | 92.4 ± 0.16 % control | 4.35% | 57.1 ± 0.30 % control | 93.2 ± 0.04 % control | growth inhibition / apoptosis in murine melanoma B16 [20]: significantly made
10 | Cc1c(N=C(SSC(=Nc2cccc([N+](=O)[O-])c2C)c2ccc(C(F)(F)F)cc2)c2ccc(C(F)(F)F)cc2)cccc1[N+](=O)[O-] [Compound 24] | 24.2 ± 0.59 % control | 53.4 ± 0.15 % control | 26.0 ± 0.32 % control | 59.5 ± 0.22 % control | 45.5 ± 0.22 % control | 73.5 ± 0.22 % control | 33.89% | 8.6 ± 0.64 % control | 34.9 ± 0.42 % control | growth inhibition / apoptosis in murine melanoma B16 [20]: significantly made; phosphorylation of p38 protein [21]: dependent on the concentration; tumor volume over time ([22]; 2 mg/kg): not markedly increased; tumor volume compared to the untreated group ([22]; 4 mg/kg): significantly suppressed
